Data set [1] deals with humoral response to HBsAg (anti-HBsAg antibodies). Put plainly: Humoral response (anti-HBsAg antibody titers by ELISA) in mice immunized i.m. with HBsAg plus adjuvant. Particulars: for mean anti-HBsAg titer: 3 weeks post-immunization, approx. 18 nmol compound per mouse with alum and 1 μg HBsAg (FIG. 4); for speed of immune response vs alum control: titers at 2 to 3 weeks, p<0.05, approx. 18 nmol per mouse with alum. In kind it is in vivo, BALB/c mice. Here is the method:
Immunization with HBsAg was conducted on groups of (n=4 or 5) 6- to 8-week old female BALB/c mice (Harlan) as described in, Davis et al., 1996. Each solution contained 1 μg recombinant HBsAg protein (ayw subtype; Genzyme) in a total volume of 50 μl, and 25 μl of each antigen solution was injected into both the left and right tibialis anterior muscles. […] This is the same ratio as used in the commercial hepatitis B vaccines (Davis et al., 1996). […] (Oligonucleotide 1826, previously described in Davis et al., 1996, contains a nuclease-resistant phosphorothioate modified backbone).
The ELISA method was used to evaluate the immune response to a combination of ppGpp and pppGpp and the immune response to ppGpp alone. Kinetics and magnitude of the immune response generated by the nucleotide ppGpp versus an oligonucleotide containing CpG were also determined from the data generated by ELISA. For the isotyping ELISAs the Immunopure Monoclonal Antibody Isotyping Kit I (HRP/ABTS) from Pierce was modified and used.
For measuring humoral response to HBsAg blood was recovered from mice by tail vein bleeds at various times after immunization. The blood was clotted at room temperature for >2 hours, and centrifuged twice at 13 krpm for 10 minutes to separate the serum. Antibodies specific to HBsAg were detected by ELISA, and were quantified relative to a monoclonal antibody against HBsAg (IgG1, 10^10 affinity constant, ad+ay; Genzyme). A solid phase of recombinant HBsAg protein (100 μl of 1 μg/ml per well, overnight at 4° C.) was used to capture anti-HBsAg in the plasma (overnight at 4° C.), which was then detected with HRP-conjugated rabbit anti-mouse IgG+IgM. (1:10,000 in PBS/0.1% Tween/2% BSA; 100 μl per well; Pierce), followed by the sequential addition of 3 3′,5,5′-tetramethylbenzidine solution (50 μl/well, 10 minutes at room temperature; Calbiochem) and 0.25M HCl (50 μl/well). Absorbance was measured at 450 nm within 10 minutes of adding the final reagent. Anti-HB titers are expressed as group means +/−standard error (SE) of individual animals values, which are in turn averages of triplicate assays.
A general note: In an ELISA, binding on a coated surface is turned into a signal by an enzyme label.

A short description of data set [2]: Tolerability / signs of toxicity in immunized mice. In kind it is in vivo. Particulars: up to 250 μg ppGpp per mouse i.m.

“Also recorded” adds a separate entry of the source.

As to `Nc1nc2c(ncn2[C@@H]2O[C@H](COP(=O)(O)OP(=O)(O)O)[C@@H](OP(=O)(O)OP(=O)(O)O)[C@H]2O)c(=O)[nH]1` [ppGpp, Guanosine 5′-diphosphate 2′(3′)-diphosphate], the “effect upon the humoral response” value is reported as “did not have a significant effect” in data set [1] (2 μg ppGpp plus alum (FIG. 3C)), “did not have a significant effect” in data set [1] (50 μg ppGpp plus alum (FIG. 3E)) and “appeared to suppress the alum-induced adjuvant effect” in data set [1] (250 μg ppGpp plus alum (FIG. 3F vs 3B)). Further, in data set [1], the “mean anti-HBsAg titer” value is 161 ± 42 ng/mL. Also, the “anti-HBsAg titer, ppGpp group vs alum group” value is reported as “trend was still present” in data set [1] (4 weeks post-immunization, ppGpp 10 μg plus alum (FIG. 3B vs 3D)) and “comparable titer levels” in data set [1] (6 weeks post-immunization, ppGpp 10 μg plus alum). Further, the “maximal anti-HBsAg titer level” value in data set [1] (10 weeks post-immunization, HBsAg plus alum, ppGpp 10 μg) turned out to be 2316 ± 1764 ng/mL. Moreover, in data set [1] (ppGpp 10 μg vs oligo 10 μg, with alum (FIG. 5)), the “time course of humoral response, ppGpp vs unmethylated CpG oligonucleotide (oligo 1826)” value was “did not appear to differ”. In addition, the “effect of natural ppGpp vs predicted response of natural CpG oligonucleotide” value in data set [1] (predicted response, dotted line of FIG. 5) is “much greater effect”. Besides, in data set [1], the “speed of immune response vs alum control” value is listed as “more rapid immune response”. For the same compound, the “optimal dosage per mouse” value in data set [1] (titration 2, 10, 50, 250 μg ppGpp with alum and 1 μg HBsAg (FIGS. 3C-3F)) came to 10 µg. Moreover, the “mean ELISA titer of anti-HBsAg antibodies” value in data set [1] (two weeks after injection, HBsAg plus alum, ppGpp 10 μg, p=0.04 (FIG. 3B, 3D)) amounted to 83 ± 37 ng/mL. The “tolerability / signs of toxicity (ruffling of fur, diarrhea)” value in data set [2] is given as “well tolerated; also recorded: no signs of toxicity were observed”.

Turning to `Nc1nc2c(ncn2[C@@H]2O[C@H](COP(=O)(O)OP(=O)(O)OP(=O)(O)O)[C@@H](O)[C@H]2O)c(=O)[nH]1` [GTP, reference compound], the “adjuvant effect on humoral response” value in data set [1] (10 μg (18 nmol) GTP with alum and HBsAg (FIG. 4E)) was “modest at best”.

Consider `Nc1nc2c(ncn2[C@@H]2O[C@H](COP(=O)(O)OP(=O)(O)OP(=O)(O)O)[C@@H](OP(=O)(O)OP(=O)(O)O)[C@H]2O)c(=O)[nH]1` [pppGpp, Guanosine 5′-triphosphate 2′(3′)-diphosphate], for which, in data set [1], the “mean anti-HBsAg titer” value turned out to be 136 ± 33 ng/mL and the “speed of immune response vs alum control” value is on record as “more rapid immune response”.

(Values after patent US6562801B1, “PpGpp and pppGpp as immunomodulatory agents” (Board of Regents, The University of Texas System, priority 1999, dated 2003).)
